One assay concerns 3T3-L1 cells. The assay is described as follows: Western blotting of adipogenic transcription factors and IMPDH in differentiating 3T3-L1 cells. Type of assay: cell-based, murine. How it is done: (§1) 3T3-L1 cells, CHO.IR cells (46) and fibroblast cells derived from vimentin null (Vim^−/−) mice were cultured as described (28, 47). Human preadipocytes were cultured and differentiated as described (47). Transfections were performed using Lipofectamine. Cells were serum starved for at least 2 h before treatment with insulin (1 μM, 15 min) or pre-treatment with wortmannin (100 nM, 25 min), LY294002 (50 μM, 10 min) or C2-ceramide (100 μM, 2 h) followed by insulin or oleate. To induce lipid body accumulation cells were cultured in regular growth medium supplemented with 200 μM oleate complexed to fatty acid free bovine serum albumin (BSA) in a 6:1 molar ratio. Mycophenolic acid (MPA) was dissolved in methanol to give a stock solution of 30 mM. This was further diluted in methanol, prior to direct addition to the culture media such that the final concentration of methanol was always 0.1%. Guanosine was dissolved in DMSO to give a stock solution of 100 mM. This was further diluted in DMSO, prior to direct addition to the culture media such that the final concentration of DMSO was always 0.33%. Media was refreshed, with addition of fresh MPA, guanosine, or vehicle, every 3 days as appropriate.
For western blotting, following appropriate treatment, cells were harvested in lysis buffer (50 mM HEPES (pH 7.4), 150 mM NaCl, 1% Triton-X-100, 1 mM Na3VO4, 30 mM NaF, 10 mM Na4P2O7, 10 mM EDTA, 1 μg/ml aprotinin, 1 μg/ml leupeptin, 2 mM PMSF) and clarified by centrifugation (2,000×g for 10 min). Protein concentration was determined using the BCA assay. Equal protein was subjected to SDS-PAGE and immunoblotting and visualized by autoradiography (using enhanced chemiluminescence) or fluorescent analysis using the L1-Cor Odyssey system.
(In general: A western blot detects proteins with antibodies after separation by electrophoresis.)

Assay [1] deals with primary human preadipocytes. The experiment in a line: Adipogenesis of primary human preadipocytes (lipid accumulation, G3PDH activity). It counts as cell-based. As to the method: as §1, with “appropriate. Cells were washed in ice cold PBS (pH 7.4) and harvested in 1 ml of ice-cold 50 mM Tris (pH 7.5) containing 1 mM EDTA and 500 μM DTT. Cells were disrupted by sonication and centrifuged at 12000 g for 15 min at 4° C. Before assay, 5 μl of 100 mM DTT was added. The supernatant was then assayed for G3PDH activity in a final concentration of 100 mM triethanolamine-HCl (pH 7.5), 2.5 mM EDTA, 0.24 mM NADH, 50 μM DTT and 0.4 mM dihydroxyacetone phosphate (DAP). The reaction was initiated by addition of DAP and the rate of change in A340 was measured using a FLUOstar Optimem spectrophotometer (BMG labtech, Victoria Australia). Each of three culture wells was assayed in duplicate with a reagent blank containing distilled water instead of substrate (DAP). An aliquot of the supernatant was assayed to determine protein concentration.” for “appropriate.”

For assay [2], the system named is 3T3-L1 preadipocytes. The assay is described as follows: Clonal expansion / cell number of differentiating 3T3-L1 cells (Syto60). Type of assay: cell-based, murine. How it is done:
as §1, with “This was further diluted in DMSO, prior to direct addition to the culture media such that the final concentration of DMSO was always 0.33%. Media was refreshed, with addition of fresh MPA, guanosine, or vehicle, every 3 days as appropriate.” left out
Essentially Syto60 staining was used to determine cell number following the manufacturers protocol. […] Finally, wells were aspirated and Syto60 staining was detected and quantitated using the LI-COR Odyssey Infrared Imaging System. DAPI was detected by fluorescence microscopy and was used to validate the Syto60 data in preliminary experiments.

Assay [3] concerns 3T3-L1 preadipocytes. The experiment in a line: Adipogenesis of 3T3-L1 preadipocytes (lipid accumulation, G3PDH activity, protein). Type of assay: cell-based, murine. As to the method:
as §1, with “appropriate. Cells were washed in ice cold PBS (pH 7.4) and harvested in 1 ml of ice-cold 50 mM Tris (pH 7.5) containing 1 mM EDTA and 500 μM DTT. Cells were disrupted by sonication and centrifuged at 12000 g for 15 min at 4° C. Before assay, 5 μl of 100 mM DTT was added. The supernatant was then assayed for G3PDH activity in a final concentration of 100 mM triethanolamine-HCl (pH 7.5), 2.5 mM EDTA, 0.24 mM NADH, 50 μM DTT and 0.4 mM dihydroxyacetone phosphate (DAP). The reaction was initiated by addition of DAP and the rate of change in A340 was measured using a FLUOstar Optimem spectrophotometer (BMG labtech, Victoria Australia). Each of three culture wells was assayed in duplicate with a reagent blank containing distilled water instead of substrate (DAP). An aliquot of the supernatant was assayed to determine protein concentration.” for “appropriate.”

For another assay, the system named is CHO.IR cells. The assay is described as follows: Oleate-induced lipid accumulation, Oil red-O staining. The settings on record: LY294002 + 200 μM oleate, 5 h. It counts as cell-based, Chinese hamster. How it is done:
as §1, with “(Vim^-/-)” for “(Vim^−/−)”, “appropriate. […] Quantification of lipids was determined by measuring Oil red-O staining at […]. Protein concentration was determined in parallel and values were normalised to protein. […]” for “appropriate.”

The test system of the next assay is IMPDH. The experiment in a line: Insulin-stimulated 32P phosphorylation of IMPDH. Type of assay: cell-based. How it is done:
as §1, with “appropriate. […] Samples were subjected to SDS-PAGE and analysed by immunoblotting and autoradiography. […]” for “appropriate.”

For the next assay, the system named is Akt. The experiment in a line: Akt phosphorylation (immunoblotting). It counts as cell-based. The settings on record: C2-ceramide; data not shown. How it is done:
as §1, with “This was further diluted in DMSO, prior to direct addition to the culture media such that the final concentration of DMSO was always 0.33%. Media was refreshed, with addition of fresh MPA, guanosine, or vehicle, every 3 days as appropriate.” left out
For western blotting, following appropriate treatment, cells were harvested in lysis buffer (50 mM HEPES (pH 7.4), 150 mM NaCl, 1% Triton-X-100, 1 mM Na3VO4, 30 mM NaF, 10 mM Na4P2O7, 10 mM EDTA, 1 μg/ml aprotinin, 1 μg/ml leupeptin, 2 mM PMSF) and clarified by centrifugation (2,000×g for 10 min). Protein concentration was determined using the BCA assay. […]

Entries after “also recorded” stand apart in the source; their conditions may differ.

For the molecule `Nc1nc2c(ncn2[C@@H]2O[C@H](CO)[C@@H](O)[C@H]2O)c(=O)[nH]1` [guanosine], the “MPA-induced increase in IMPDH expression” value in the assay on 3T3-L1 cells (co-treatment with guanosine) is recorded as “Reversal of MPA induced increase in IMPDH expression; also recorded: prevented by co-treatment with guanosine”. Further, the “induction of G3PDH activity / differentiation” value in assay [1] (60 μM guanosine) was “reduced induction of G3PDH activity; also recorded: inhibited differentiation”. The “MPA inhibition of clonal expansion/proliferation” value in the assay on 3T3-L1 preadipocytes [2] (60 μM guanosine co-treatment with MPA) is “Reversal of effects of MPA on clonal expansion; also recorded: reversed the inhibition of proliferation by MPA”. For the same molecule, the “lipid accumulation and G3PDH activity in MPA-treated cells” value with 3T3-L1 preadipocytes [3] (60 μM guanosine + 1 μM MPA) is recorded as “reversed the effects of MPA treatment; also recorded: restored lipid accumulation”. The “effects of MPA treatment on lipid accumulation and G3PDH activity” value in the assay with 3T3-L1 preadipocytes [3] (300 μM guanosine + 1 μM MPA) was “still able to reverse the effects of MPA treatment to some extent”. For the same molecule, the “lipid accumulation and adipogenesis” value in the assay on 3T3-L1 preadipocytes [3] (300 μM guanosine alone) was “reduced adipogenesis; also recorded: inhibited lipid accumulation and adipogenesis”.

Turning to `O=c1cc(N2CCOCC2)oc2c(-c3ccccc3)cccc12` [LY294002], in the assay on CHO.IR cells, the “reduction of oleate-induced lipid accumulation (Oil red-O)” value is “approximately 50%”.

As usually defined, the IC50 is the concentration that inhibits the measured activity by half. Regarding `COc1c(C)c2c(c(O)c1C/C=C(\C)CCC(=O)O)C(=O)OC2` [MPA, mycophenolic acid], the IMPDH expression result in the assay on 3T3-L1 cells (1 μM MPA) is “promotes increased IMPDH expression; also recorded: promoted an increase in IMPDH expression”. Moreover, the “expression of adipogenic transcription factors CEBPα, CEBPβ, PPARγ” value in the assay on 3T3-L1 cells (1 μM MPA, harvested at day 3) is “blocks expression of CEBPα, but not CEBPβ or PPARγ; also recorded: induction of expression of the adipogenic transcription factors CEBPβ and PPARγ, but not CEBPα, was apparent”. In assay [1] (1 μM MPA), the “induction of G3PDH activity” value is recorded as “reduced”; the lipid accumulation entry is “reduced lipid accumulation and expression of G3PDH activity”. Besides, the proliferation/clonal expansion result in the assay on 3T3-L1 preadipocytes [2] (1 μM MPA, first 3 days of differentiation) is “blocks proliferation/clonal expansion; also recorded: blocked clonal expansion”. Besides, the “lipid accumulation (determined morphologically)” value with 3T3-L1 preadipocytes [3] (1 μM MPA) was “blocks lipid accumulation; also recorded: reduced lipid accumulation; also recorded: inhibited lipid accumulation”. Further, in the assay on 3T3-L1 preadipocytes [3] (1 μM MPA, day 8), the G3PDH activity result was “decreased G3PDH activity”. In addition, the differentiation entry in the assay on 3T3-L1 preadipocytes [3] (MPA for 6 days (0-6)) is on record as “block differentiation completely”. Further, in the assay on 3T3-L1 preadipocytes [3] (MPA for the first 3 days (0-3) or the second 3 days (3-6) of differentiation), the “lipid accumulation and G3PDH activity” value is “reduced lipid accumulation and G3PDH activity”. The IC50 in the assay with 3T3-L1 preadipocytes [3] (Mus musculus, 3T3-L1, increasing MPA for the first 6 days of differentiation, harvested day 8, read-out: IC50 for inhibition of differentiation (G3PDH activity and protein levels)) was 100 to 200 nM.

Consider `COc1ccc2c(c1)c(C1=C(c3c[nH]c4ccccc34)C(=O)NC1=O)cn2CCCN(C)C` [Gö6983], for which the “role of the inhibited kinase (atypical PKCs; mTOR and p70S6 kinase) in insulin-stimulated IMPDH phosphorylation” value in the assay on IMPDH (Gö6983 1 μM, rapamycin 22 nM, data not shown) is “eliminated”.

Turning to `CCCCCCCCCCCCC/C=C/[C@@H](O)[C@H](CO)NC(C)=O` [C2-ceramide], the “insulin-stimulated IMPDH phosphorylation” value in the assay on IMPDH (C2-ceramide 100 μM, 2 h) is given as “without effect”. The “reduction of insulin-stimulated Akt phosphorylation” value with Akt worked out at 70%.

The values are drawn from patent US7915255B2, “Metabolism-modulating agents and uses therefor” (Verva Pharmaceuticals Pty Ltd, priority 2004, dated 2011).
